Measurements from the NIST ThermoML archive (doi:10.1021/je200820v).

Experiments:
[1] = Liquid, Closed cell (Static) method
[2] = excess molar enthalpy (molar enthalpy of mixing); xn = mol fraction of the nth substance listed; details: 303.15 K, 101 kPa, Liquid, Calvet calorimetry

CCCCCCC [heptane]
[1]
Details | vapor or sublimation pressure [kPa]
273.15 K | 1.536
293.15 K | 4.76
298.15 K | 6.135
303.15 K | 7.829
313.15 K | 12.39
323.15 K | 18.96
333.15 K | 28.14
343.15 K | 40.64
353.15 K | 57.27
363.15 K | 78.94

CCN(CC)CCN [N,N-diethylethane-1,2-diamine]
[1]
Details | vapor or sublimation pressure [kPa]
273.15 K | 0.1291
293.15 K | 0.5288
298.15 K | 0.7256
303.15 K | 0.9831
313.15 K | 1.741
323.15 K | 2.957
333.15 K | 4.833
343.15 K | 7.634
353.15 K | 11.7
363.15 K | 17.43

CCN(CC)CCN [N,N-diethylethane-1,2-diamine] + CCCCCCC
[2]
Details | excess molar enthalpy [kcal/mol]
x1 = 0.0612 | 0.0679
x1 = 0.1118 | 0.115
x1 = 0.1488 | 0.143
x1 = 0.2038 | 0.179
x1 = 0.2452 | 0.201
x1 = 0.3051 | 0.222
x1 = 0.4078 | 0.24
x1 = 0.5068 | 0.239
x1 = 0.6156 | 0.216
x1 = 0.7084 | 0.183
x1 = 0.7471 | 0.164
x1 = 0.8058 | 0.135
x1 = 0.8841 | 0.0866
